Reference: patent US12129264B2, “Crystalline forms of a PAR4 inhibitor” (BRISTOL-MYERS SQUIBB COMPANY, priority 2018, dated 2024)

How the values were obtained:
[1] = Microdissolution of co-crystals versus free form in FaSSIF (pION Microdissolution Profiler); format: physicochemical; conditions: for AUC (extent of dissolution), Mean / Dissolution Rate, Mean: FaSSIF pH 6.5, 15 mL at 37° C., 150 rpm, API powder 0.2 mg/mL, N = 4; for AUC (extent of dissolution), Mean: 180 min, trapezoidal rule
Procedure: The dissolution of the N-1 form of the citric acid and the succinic acid co-crystals of the compound of formula (I) were tested against that of the free form of the compound of formula (I). The dissolution properties, rate and extent, and peak solubility were tested in FaSSIF (fasted state simulated intestinal fluid).
This experiment was performed on a pION Microdissolution Profiler™ an API sparing, low volume dissolution instrument with UV fiber optics (UVFO) probes to measure real-time dissolution profile in biorelevant media. The experimental was run under the following conditions: • Apparatus: plon Microdissolution profiler • Media: FaSSIF, pH 6.5 • Volume: 15 mL at 37° C. • Stirring: 150 rpm with small stirrer bar • Dose: API powder at 0.2 mg/mL or 3 mg/vial • Study duration: 180 min
Time points: several time points to capture initial dissolution rate and through 180 min (typical time for absorption)
The results were analyzed using UVFO Analysis: Standard curve range 0-3 μg/mL; 10 mm path length probe windows; detection wavelength 315 nm; slope ˜17 μg/mL/AU; R2=0.99.

[2] = Pharmacokinetic study of co-crystal capsules in the dog model; format: in vivo; conditions: for Systemic absorption in the dog model: at relevant doses (5 mg capsule); for AUC0-24h, Mean / Cmax, Mean / Tmax: capsule, 5 mg/dog, pentagastrin pre-treated fasted male dogs, crossover in 4 dogs
Procedure: The co-crystals were tested using the following formulations: • 1. Succinic Acid co-crystal capsule (5 mg dose)—Pentagastrin pre-treated, fasted dogs • 2. Citric Acid co-crystal capsule (5 mg dose)—Pentagastrin pre-treated, fasted dogs
The Study Design is as follows:
Crossover in 4 fasted male dogs (˜10 kg); dose 5 mg/dog; flush with 50 mL water; 2-week washout between treatments; 8 blood sample points per treatments.

Compound | Dissolution in FaSSIF compared with the free form [1] | AUC (extent of dissolution), Mean [1] [µg·min/mL] | Dissolution Rate, Mean [1] [µg/mL/min] | Systemic absorption in the dog model [2] | AUC0-24h, Mean [2] [ng·h/mL] | Cmax, Mean [2] [ng/mL] | Tmax [2] [h]
4-(4-(((6-Methoxy-2-(2-methoxyimidazo[2,1-b][1,3,4]thiadiazol-6-yl)benzofuran-4-yl)oxy)methyl)thiazol-2-yl)-N,N-dimethylbenzamide: citric acid co-crystal (1:1), form N-1 [Example 2] | better than the free form | 988.900 | 0.584 | measurable systemic absorption | 161.61 | 29.28 | 2.0
4-(4-(((6-Methoxy-2-(2-methoxyimidazo[2,1-b][1,3,4]thiadiazol-6-yl)benzofuran-4-yl)oxy)methyl)thiazol-2-yl)-N,N-dimethylbenzamide: succinic acid co-crystal (1:0.5) [Example 1] | better than the free form | 272.622 | 0.144 | measurable systemic absorption | 93.97 | 12.22 | 1.5
COc1cc(OCc2csc(-c3ccc(C(=O)N(C)C)cc3)n2)c2cc(-c3cn4nc(OC)sc4n3)oc2c1 [Free form, 4-(4-(((6-Methoxy-2-(2-methoxyimidazo[2,1-b][1,3,4]thiadiazol-6-yl)benzofuran-4-yl)oxy)methyl)thiazol-2-yl)-N,N-dimethylbenzamide] | – | 0 | 0 | – | – | – | –
